For test [1], the system named is CD8 T cells (OT1 splenocytes). The test can be described thus: In vitro priming of CD8 T cells (OT1 splenocytes), memory marker expression by flow cytometry. It is filed as cell-based, mouse. To be noted: day 7, highest doses. The protocol:
OT1 splenocytes were cultured for 3 days at a concentration of 10^6 cells per mL in RPMI medium (Gibco 61870-01) supplemented with 10% FBS, (Gibco 10270-106), 1% Penicillin/Streptomycin (Gibco 15070-063), 50 μM ß-mercaptoethanol, 1% HEPES (Gibco 15630-080), 1× Non-essential amino acids (Gibco 11140-035), 1% L-glutamine (Gibco 25030-081), 1 mM Sodium Pyruvate (Gibco 11360-039). Cells were additionally supplemented with hIL-2 100 U/ml (Glaxo-IMB), ovalbumin N4 peptide (257-264) 1 μg/ml (model peptide antigen from ovalbumin) and either different concentrations of Compound 45 or 47 or with their solvent DMSO as a control. At day 3, splenocytes were collected, washed and split, and cells were cultured for 4 additional days with 100 U/ml hIL-2 and hIL-7 (Peprotech 200-07) supplemented either with Compound 45 or 47 or DMSO. At day 7, flow cytometry analyses were performed for surface marker expression.
To evaluate the effects of MPC inhibition on T cell differentiation, OTI splenocytes were cultured in the presence of 1 μg/ml ovalbumin-derived N4 peptide, 100 IU/ml recombinant human IL-2 (rhIL-2) and the MPC inhibitors Compound 45 or 47 or control DMSO for 3 days. The cells were cultured for 4 more days in the presence of 100 IU/ml IL-2 and 10 ng/ml rhIL-7 (FIG. 1A) and the inhibitors or DMSO. When analyzing the surface expression of the central memory marker CD62L (FIG. 1B) and the pro-survival receptor CD127 (FIG. 1C) by flow cytometry on day 7, an increase in cells treated with the highest doses of compounds of the invention was observed compared to DMSO.
On the technique in general: Flow cytometry measures light scatter and fluorescence of single cells or particles in a stream.

Test [2] deals with T1, mitochondrial pyruvate carrier (MPC) (Homo sapiens, UniProt O95563+Q9Y5U8).
T1 sequence (Q9Y5U8 1-109): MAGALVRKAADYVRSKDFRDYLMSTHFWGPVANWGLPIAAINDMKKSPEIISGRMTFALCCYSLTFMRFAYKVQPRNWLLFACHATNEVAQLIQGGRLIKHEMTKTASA
T1 sequence (O95563 1-127): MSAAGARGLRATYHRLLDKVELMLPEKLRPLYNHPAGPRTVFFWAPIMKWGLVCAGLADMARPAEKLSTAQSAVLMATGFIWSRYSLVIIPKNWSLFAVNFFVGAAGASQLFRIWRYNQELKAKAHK
Kind of test: Seahorse Xfe24 pyruvate-dependent OCR in HeLa cells. It is filed as cell-based. The conditions noted are these: pyruvate-dependent OCR in presence of fCCP. As for the experimental part:
(§1) The inhibition of mitochondrial pyruvate carrier (MPC) by compounds of the invention have been tested as follows and their inhibitory activity was expressed as IC50s values.
Cells are plated in the customized Seahorse plates. For HeLa cells, seeding is at 4×10^4 cells/well in […] DMEM, 10% FBS, 1% pen/strep/glutamine. 3 wells are left blank (medium alone) for internal calibration. The assay cartridge is hydrated overnight at 37° C. in 1 ml/well XF Calibrant Solution.
Since 50 μl of compound of the invention will be injected into 450 μl washed cells, compounds are made up in assay medium at 10× the final desired concentration
For dose response analyses, compounds are tested at final concentrations 30, 5, 0.83, 0.14, 0.023 μM (1:6 serial dilutions from […])
Positive control: […] (the parent hit compound which gave rise to the actual series)
Negative control: Assay medium alone.
The seahorse reagent plate is prepared as follows and transfered to the Xfe24 analyser for the calibration step:
The medium is almost completely removed from the well without allowing cells to dry Cells are washed twice with 300 μl Assay Medium. 450 μl fresh Assay Medium is added to each well. The plate is transferred to the Xfe24 analyser for measurement of pyruvate-dependent OCR. All values are normalized to the initial basal respiration rate in each well which is measured prior to addition of compounds and designated as 100%. IC50 determination is based on the average of the 3 measurements made in the presence of fCCP, taking 30 μM parent hit compound as maximal inhibition and PBS/Ca/Mg as zero inhibition.

Test [3] has as its target T1, mitochondrial pyruvate carrier (MPC). The test can be described thus: Bret IC50, inhibitory activity against MPC. It is filed as cell-based.
From the text: as §1
Table 2 below presents the IC50s of the compounds of the invention.

The IC50 is the midpoint of a concentration-inhibition curve. On to `O=c1cc(Cc2ccccc2)n2c(SCc3c(F)cccc3Cl)nnc2[nH]1` [Compound 45, 5-benzyl-3-[(2-chloro-6-fluorobenzyl)sulfanyl][1,2,4]triazolo[4,3-a]pyrimidin-7 (8H)-one], for which the “cells positive for central memory marker CD62L” value in test [1] (vs DMSO (FIG. 1B)) is “increase”. The “cells positive for pro-survival receptor CD127” value in test [1] (vs DMSO (FIG. 1C)) is “increase”. Moreover, the IC50 in test [2] was determined as 64 nM; in test [3], 117 nM.

The record behind these values is patent US20240360143A1, “[1,2,4]TRIAZOLO[4,3-A]PYRIMIDIN-7(8H)-ONE AS MITOCHONDRIAL PYRUVATE CARRIER INHIBITORS FOR USE IN THE TREATMENT OF CANCER” (MPC THERAPEUTICS SA, priority 2021, published 2024).
